Test results: patent publication EP0116944B1 (priority 1983, dated 1984)
Read-outs that look alike come from different tables or passages of the source.

Legend:
[1] = in vivo; details: dog, iv
[2] = system: Vasopressin-induzierten Koronarspasmen; set-up: species or system Ratten; details: in vivo; for Dauer der antianginösen Wirkung gegenüber Vasopressin: po
[3] = system: ST-Wellensenkung; details: cited from earlier work
[4] = system: Hypotensivum; details: orale Verabreichung; cited from earlier work
[5] = system: Blutdruck anästhesierter Ratten; details: in vivo
[6] = intraduodenal, Ratten; cited from earlier work
[7] = system: hypotensive Wirkung; details: in vivo
[8] = system: systolischen Blutdruck; set-up: species or system Hunde; details: in vivo

O=[N+]([O-])OC(CO)CO [2-GN, Glycerin-2-nitrat]
half-life [1]: 2.1 h | Dauer der antianginösen Wirkung gegenüber Vasopressin [2]: 2 to 3 h

OCCN(CCO)c1nc(N2CCCCC2)c2nc(N(CCO)CCO)nc(N3CCCCC3)c2n1 [Dipyridamol]
Hemmung der ST-Wellensenkung ([3]; in vivo): unwirksam

O=[N+]([O-])OCC(CO[N+](=O)[O-])O[N+](=O)[O-] [GTN, Glycerintrinitrat]
Hemmung der ST-Wellensenkung ([3]; in vivo): hemmte | Wirksamkeit als Hypotensivum [4]: inaktiv | Hemmung der T-Wellenerhöhung / Vasopressin-induzierten Koronarspasmen [2]: entschieden den stärksten Einfluß | Dauer der antianginösen Wirkung gegenüber Vasopressin [2]: 2 to 3 h | Dauer der hypotensiven Wirkung [5]: 14 min | Zeit, nach der kein weiterer Plasmawert der Ausgangssubstanz gemessen werden konnte [6]: ≤ 5 min | hypotensive Wirkung nach Vorbehandlung mit DHE [7]: herabgesetzt | Beginn der Wirkung [8]: 0,4 min | Einfluß auf den systolischen Blutdruck [8]: senkten

O=[N+]([O-])O[C@H]1CO[C@H]2[C@@H]1OC[C@H]2O[N+](=O)[O-] [ISDN, Isosorbid-dinitrat]
Hemmung der ST-Wellensenkung ([3]; oral, Ratten): hemmten
